Active and inactive are the calls of the source. The calls are words filed in the database; no cut-off is given here. Where only a bound is given, the exact number is not on record here.

The source of these data is ChEMBL document CHEMBL2150939, “Synthesis and cytotoxicity of novel ursolic acid derivatives containing an acyl piperazine moiety” (Eur J Med Chem, 2012).

Series [1] has as its system MGC-803. Nature of the series: Induction of apoptosis in human MGC803 cells assessed as early and late apoptotic level at 10 uM after 12 hrs by annexinV/FITC-PI staining-based flow cytometric analysis. The class given is functional. A general note: A flow cytometer gives signals particle by particle.
Series [2] deals with MGC-803. Kind of series: Induction of apoptosis in human MGC803 cells assessed as early and late apoptotic level at 10 uM after 36 hrs by annexinV/FITC-PI staining-based flow cytometric analysis. In kind it is functional.
Series [3] is described as follows: Growth inhibition of mouse NIH/3T3 cells at 10 uM after 72 hrs by MTT assay. The class given is cell-based, NIH3T3. Particulars: read-out: GI.
Series [4] has as its system MGC-803. Kind of series: Induction of apoptosis in human MGC803 cells assessed as early and late apoptotic level at 10 uM after 24 hrs by annexinV/FITC-PI staining-based flow cytometric analysis. In kind it is functional.
The test system of series [5] is Bcap37. Kind of series: Antiproliferative activity against human Bcap37 cells after 72 hrs by MTT assay. Particulars: Bcap37, 72 h, read-out: IC50. The class given is functional, cell-based.
For series [6], the system named is MGC-803. Nature of the series: Induction of apoptosis in human MGC803 cells at 10 uM after 48 hrs by acridine orange/ethidium bromide staining. The class given is functional, cell-based.
In series [7] the test system is MGC-803. Kind of series: Antiproliferative activity against human MGC803 cells after 72 hrs by MTT assay. In kind it is functional, cell-based. The settings on record: MGC-803, 72 h.
The subject of series [8] is MGC-803. Nature of the series: Growth inhibition of human MGC803 cells at 10 uM after 72 hrs by MTT assay. The class given is functional. The settings on record: MGC-803, 72 h, read-out: GI. In general terms: Tetrazolium dyes change colour on reduction, which living cells bring about.
In series [9] the test system is MGC-803. Nature of the series: Induction of apoptosis in human MGC803 cells assessed as condensed chromatin at 10 uM after 48 hrs by Hoechst 33258 staining. In kind it is functional, cell-based.
Series [10] relates to MGC-803. Kind of series: Induction of apoptosis in human MGC803 cells assessed as DNA fragmentation at 10 uM after 24 hrs by TUNEL assay. The class given is functional, cell-based.
Series [11] deals with Bcap37. Nature of the series: Growth inhibition of human Bcap37 cells at 10 uM after 72 hrs by MTT assay. In kind it is functional. The settings on record: Bcap37, 72 h, read-out: GI.
Series [12] has as its system MGC-803. Nature of the series: Induction of apoptosis in human MGC803 cells assessed as cell budding at 10 uM after 48 hrs by acridine orange/ethidium bromide staining. In kind it is functional, cell-based.
Series [13] concerns MGC-803. Nature of the series: Induction of apoptosis in human MGC803 cells assessed as membrane blebbing at 10 uM after 48 hrs by acridine orange/ethidium bromide staining. In kind it is functional, cell-based.
For series [14], the system named is MGC-803. Nature of the series: Induction of apoptosis in human MGC803 cells assessed as pyknosis at 10 uM after 48 hrs by acridine orange/ethidium bromide staining. In kind it is functional, cell-based.
Series [15] deals with MGC-803. Nature of the series: Induction of apoptosis in human MGC803 cells assessed as cell budding at 5 uM at 24 hrs by acridine orange/ethidium bromide staining.
The subject of series [16] is MGC-803. Nature of the series: Induction of apoptosis in human MGC803 cells assessed as condensed chromatin at 5 uM after 12 to 48 hrs by Hoechst 33258 staining. The class given is functional, cell-based.
In series [17] the test system is MGC-803. Nature of the series: Induction of apoptosis in human MGC803 cells assessed as pyknosis at 5 uM after 12 to 48 hrs by acridine orange/ethidium bromide staining. The class given is functional, cell-based.
Series [18] concerns MGC-803. Nature of the series: Induction of apoptosis in human MGC803 cells at 10 uM by annexinV/FITC-PI staining-based flow cytometric analysis. The settings on record: TDE = time-dependent effect. The class given is functional, cell-based.
Series [19] has as its system MGC-803. Kind of series: Induction of apoptosis in human MGC803 cells assessed as cell budding at 5 uM up to 48 hrs by acridine orange/ethidium bromide staining. The class given is functional, cell-based.
The subject of series [20] is MGC-803. Kind of series: Induction of apoptosis in human MGC803 cells assessed as early apoptotic cells at 5 uM after 24 hrs by acridine orange/ethidium bromide staining. In kind it is functional, cell-based.
Series [21] has as its system MGC-803. Nature of the series: Induction of apoptosis in human MGC803 cells assessed as late apoptotic cells at 5 uM after 48 hrs by acridine orange/ethidium bromide staining. The class given is functional, cell-based.
The subject of series [22] is MGC-803. Nature of the series: Induction of apoptosis in human MGC803 cells assessed as membrane blebbing at 5 uM after 12 to 48 hrs by acridine orange/ethidium bromide staining. The class given is functional, cell-based.
Series [23] deals with MGC-803. Kind of series: Induction of apoptosis in human MGC803 cells assessed as DNA fragmentation at 2.5 to 10 uM after 24 hrs by TUNEL assay. In kind it is functional, cell-based.

On to `CC[C@@]1(O)C(=O)OCc2c1cc1n(c2=O)Cc2cc3cc(O)ccc3nc2-1` [HYDROXYCAMPTOTHECIN], for which the figures for the Activity in the series on MGC-803 [1], in the series on MGC-803 [2] and in the series with MGC-803 [4] were 17.37%, 24.95% and 18.66%, respectively. Also, in series [3], the inhibition at 72 h, 10 µM was determined as 9.3%. Also, the IC50 in the series with Bcap37 [5] and in the series on MGC-803 [7] was above 20 µM in each case. Further, the outcome in the series on MGC-803 [6], in the series on MGC-803 [9] and in the series on MGC-803 [10] was Active. Further, the inhibition of growth at 10 µM with MGC-803 [8] was 29.1%; in the series on Bcap37 [11] it was 28.1%.
Consider `C[C@H]1[C@H](C)CC[C@]2(C(=O)O)CC[C@]3(C)C(=CC[C@@H]4[C@@]5(C)CC[C@H](O)C(C)(C)[C@@H]5CC[C@]43C)[C@H]12` [URSOLIC ACID], for which the inhibition at 72 h, 10 µM in [3] turned out to be 14%. For the same molecule, the result in the series with MGC-803 [12], with MGC-803 [13], in the series on MGC-803 [14], with MGC-803 [9] and in the series on MGC-803 [10] was Active. Besides, the figures for the IC50 in the series on Bcap37 [5] and with MGC-803 [7] were 28.7 µM and 24.3 µM, respectively. Moreover, the values for the inhibition of growth at 10 µM in the series with MGC-803 [8] and with Bcap37 [11] were 28.9% and 11.9%, respectively.
Consider `C[C@H]1[C@H](C)CC[C@]2(C(=O)OCCN3CCN(C(=O)c4c(Cl)cccc4Cl)CC3)CC[C@]3(C)C(=CC[C@@H]4[C@@]5(C)CC[C@H](O)C(C)(C)[C@@H]5CC[C@]43C)[C@H]12`, for which the Activity is 23.57% with MGC-803 [1], 33.35% in the series with MGC-803 [2], 28.01% in the series on MGC-803 [4] and “tde” in the series with MGC-803 [18]. In addition, the outcome in the series on MGC-803 [15], in the series with MGC-803 [16], in the series on MGC-803 [17], with MGC-803 [19], in the series on MGC-803 [20] and with MGC-803 [21] was Active. The result with MGC-803 [22] and in the series on MGC-803 [23] was Active. The inhibition at 72 h, 10 µM in [3] was found to be 32.1%. Besides, the IC50 – broadly, the midpoint of a concentration-inhibition curve – came out at 9.24 µM with Bcap37 [5] and 2.5 µM in the series on MGC-803 [7]. Also, the inhibition of growth at 10 µM is 95.6% in the series on MGC-803 [8] and 76% with Bcap37 [11].
As to `CCCCC(CC)C(=O)N1CCN(CCOC(=O)[C@]23CC[C@@H](C)[C@H](C)[C@H]2C2=CC[C@@H]4[C@@]5(C)CC[C@H](O)C(C)(C)[C@@H]5CC[C@@]4(C)[C@]2(C)CC3)CC1` (stereo partly drawn), the inhibition at 72 h, 10 µM in series [3] turned out to be 54.5%. Further, the IC50 is 4.16 µM in the series with Bcap37 [5] and 6.89 µM in the series on MGC-803 [7]. Besides, the inhibition of growth at 10 µM with MGC-803 [8] turned out to be 80.8%; in the series with Bcap37 [11], 68.6%.
